From US8802596B2, “Multi-functional ionic liquid compositions for overcoming polymorphism and imparting improved properties for active pharmaceutical, biological, nutritional, and energetic ingredients” (Board of Trustees of the University of Alabama, priority 2005, dated 2014)
Entries after “also recorded” stand apart in the source; their conditions may differ.

Key:
[1] = Thermal stability (thermalgravimetric analysis, TGA); format: physicochemical; conditions: for Tonset / Tonset5%: TGA; for Tonset(5%) - onset temperature for 5% of the decomposition / Td - temperature of total decomposition / Tonset - onset temperature of the decomposition: Table 2, no unit in table (temperature is in ° C.)
[2] = system: Enterococcus faecium ATCC 49474; assay: Microbiological activity test (dilution method), MIC and MBC; format: cell-based
Protocol: (§1) In the biological activity measurements (tests) following bacteria were used: Staphylococcus aureus ATCC 6538, Enterococcus faecium ATCC 49474, Escherichia coli ATCC 25922 and fungi Candida albicans ATCC 10231.
(§2) Microbiological activity tests were performed using dissolution method. Determinations were performed on liquid base (background): Mueller-Hinton for bacteria and Sabouraud for fungi. Starting solution had the concentration of 1 g/cm^3. From this solution, all other solutions (lower concentrations) were prepared. To those solutions, 0.1 cm^3 of the suspensions of standard microorganisms at a concentration of 10^6 cfu cm^3 were added. The samples with bacteria were incubated for 24 h at the temperature of 37° C., and with fungi there were incubated for 48 h at the temperature of 22° C. After incubation time the MIC, Minimal Inhibitory Concentration, minimal concentration of the investigated compound at which the growth of the microorganisms is stopped (visually), was specified (recorded) for every sample. To define the MBC, Minimal Bactericidal Concentration, additionally to each solution the 10^−6 cm^3 of the inactivator was added on the base (background) (0.3% lecithin, 3% polysorbate 80 and 0.1% L-cysteine). The samples with bacteria were incubated for 48 h in the temperature of 37° C. The fungi samples were incubated for 5 days at the temperature of 22° C. MBC values were defined (specified) as the concentration at which the level of the reduction of the microorganisms was not lower than 99.99%.

[3] = system: Staphylococcus aureus ATCC 6538; assay: as above; format: cell-based
Protocol: as §1, §2

[4] = system: Escherichia coli ATCC 25922; assay: as above; format: cell-based
Protocol: as §1, §2

[5] = system: Candida albicans ATCC 10231; assay: as above; format: cell-based
Protocol: as §1, §2

[6] = system: S. aureus, E. faecium, E. coli, C. albicans; assay: Average value of MIC / MBC over the four cultures; format: cell-based; conditions: for MBC Average value / MIC Average value: average over S. aureus, E. faecium, E. coli, C. albicans; for Biological activity compared with the starting quaternary ammonium chloride (average MIC and MBC): in words, refers to Tables 3 and 4
Protocol: as §1, §2

proteins in the body = conditions: cited from earlier work
[7] = background statement, in words; cited from earlier work
[8] = in words
Swiss-Webster male mice = conditions: tail dipped 60 seconds in DMSO solution, 1 mM and 100 mM; 47.5° C. water bath; 15, 30, 60, 120 minutes; versus lidocaine hydrochloride
Protocol: The rat tail flick test is used to determine the local anesthetic ability of lidocaine docusate compared with lidocaine hydrochloride. The rat is immobilized in a restraining sock, so that the tail is only exposed. The tail is dipped into hot water and the number of times the rat flicks its tail is recorded. When the anesthetic is applied, the rat's tail should be numb therefore it will not feel the hot water and the number of tail flicks should decrease.
For this test Swiss-Webster male mice were used. They were habituated in a restraining sock 3 times during a 10 day period. A baseline tail flick was determined for each rat in 47.5° C. water bath. […] The number of tail flicks was determined at 15, 30, 60, and 120 minutes in the 47.5° C. water bath. […] Using the following equation, one can determine the % MPE at each time for the two compounds in question. % MPE=(TFi−BL)/(10−BL)*100 • TFi=latency to withdraw tail from hot water • BL=baseline withdrawal time without the drug

[9] = E. faecium, incubated 24 h at 37° C., Mueller-Hinton
[10] = E. faecium, reduction not lower than 99.99%, 48 h at 37° C.
[11] = S. aureus, incubated 24 h at 37° C., Mueller-Hinton
[12] = S. aureus, reduction not lower than 99.99%, 48 h at 37° C.
[13] = E. coli, incubated 24 h at 37° C., Mueller-Hinton
[14] = E. coli, reduction not lower than 99.99%, 48 h at 37° C.
[15] = C. albicans, incubated 48 h at 22° C., Sabouraud
[16] = C. albicans, reduction not lower than 99.99%, 5 days at 22° C.

CCCCCCCCCCCCOC[N+](C)(C)CCOC(C)=O.O=C([O-])c1ccccc1 [(2-acetoxyethyl)dodecyloxymethyldimethylammonium Benzoate]
Tonset [1]: 122 °C

CCCCCCCOC[N+](C)(C)CCOC(C)=O.O=C([O-])c1ccccc1 [(2-acetoxyethyl)heptyloxymethyldimethylammonium benzoate]
Tonset [1]: 120 °C

CCCCCCCCCCCOC[N+](C)(C)CCO.O=C([O-])c1ccccc1 [(2-hydroxyethyl)dimethylundecyloxymethylammonium benzoate]
Tonset [1]: 127 °C

CCCCCCCCCC[N+](C)(C)CCCCCCCCCC.[Cl-] [DDAC, didecyldimethylammonium chloride, reference compound]
MIC ([2]; Enterococcus faecium, ATCC49474, 24 h): 4 µg/mL | MBC ([2]; Enterococcus faecium, ATCC49474, 48 h): 31.2 µg/mL | MIC ([3]; Staphylococcus aureus, ATCC6538, 24 h): 2 µg/mL | MBC ([3]; Staphylococcus aureus, ATCC6538, 48 h): 31.2 µg/mL | MIC ([4]; Escherichia coli, ATCC25922, 24 h): 8 µg/mL | MBC ([4]; Escherichia coli, ATCC25922, 48 h): 31.2 µg/mL | MIC ([5]; Candida albicans, ATCC10231, 48 h): 8 µg/mL | MBC ([5]; Candida albicans, ATCC10231, 120 h): 16 µg/mL | MBC ([6]; read-out: MBC Average value): 27.4 µg/mL | MIC ([6]; read-out: MIC Average value): 5.5 µg/mL

CCCCCCCCCC[N+](C)(C)CCCCCCCCCC.CCCCCCOC(=O)CC(C(=O)OCCCCCC)S(=O)(=O)O (stereo not drawn) [Didecyldimethylammonium Colawet MA-80]
Tonset [1]: 226 °C | Tonset5% [1]: 218 °C

CCCCCCCCCC[N+](C)(C)CCCCCCCCCC.CCN1CCN(C(=O)NC(C(=O)NC2C(=O)N3C2SC(C)(C)C3C(=O)[O-])c2ccccc2)C(=O)C1=O (stereo not drawn) [Didecyldimethylammonium Piperacillin]
Tonset [1]: 205 °C | Tonset5% [1]: 181 °C

CC([O-])=NS(=O)(=O)c1ccc(N)cc1.CCCCCCCCCC[N+](C)(C)CCCCCCCCCC [Didecyldimethylammonium Sulfacetamide, didecyldimethylammonium (DDA) sulfacetamide]
Tonset [1]: 200.2 °C | Tonset5% [1]: 183.3 °C

CCCCCCCCCCCCCCCC[n+]1ccccc1.CCCCCCOC(=O)CC(C(=O)OCCCCCC)S(=O)(=O)[O-] (stereo not drawn) [Hexadecylpyridinium Colawet MA-80]
Tonset [1]: 262 °C | Tonset5% [1]: 248 °C

CC(=O)NS(=O)(=O)c1ccc(N)cc1.CCCCCCCCCCCCCCCC[n+]1ccccc1 [Hexadecylpyridinium Sulfacetamide, hexadecylpyridinium sulfacetamide]
Tonset [1]: 219 °C | Tonset5% [1]: 211 °C

CCC(C)n1ncn(-c2ccc(N3CCN(c4ccc(OCC5COC(Cn6cncn6)(c6ccc(Cl)cc6Cl)O5)cc4)CC3)cc2)c1=O (stereo not drawn) [Itraconazole, itraconazole]
Drug bound to proteins in the body (proteins in the body): 99.8% | Solubility in organic solvents [7]: slightly soluble in alcohol; also recorded: freely soluble in dichloromethane | Solubility in water [7]: insoluble in water

CC1=CC(=O)[N-]S(=O)(=O)O1.CCCCCCCCCCCC[N+](C)(C)Cc1ccccc1 [[BA][Ace], benzalkonium acesulfamate]
Tonset(5%) - onset temperature for 5% of the decomposition [1]: 186 | MIC [2, 9]: 8 ppm | MBC [2, 10]: 31.2 ppm | MIC [3, 11]: 4 ppm | MBC [3, 12]: 31.2 ppm | MIC [4, 13]: 31.2 ppm | MBC [4, 14]: 125 ppm | MIC [5, 15]: 16 ppm | MBC [5, 16]: 31.2 ppm | MBC Average value [6]: 54.7 ppm | MIC Average value [6]: 14.8 ppm | Biological activity compared with the starting quaternary ammonium chloride (average MIC and MBC) [6]: high activity of the salt, slightly lower than that of the starting benzalkonium chloride

CCCCCCCCCCCC[N+](C)(C)Cc1ccccc1.O=C1[N-]S(=O)(=O)c2ccccc21 [[BA][Sac], benzalkonium saccharinate]
Td - temperature of total decomposition [1]: 227 | Tonset - onset temperature of the decomposition [1]: 206 | Tonset(5%) - onset temperature for 5% of the decomposition [1]: 176 | MIC [2, 9]: 8 ppm | MBC [2, 10]: 16 ppm | MIC [3, 11]: 4 ppm | MBC [3, 12]: 31.2 ppm | MIC [4, 13]: 16 ppm | MBC [4, 14]: 62.5 ppm | MIC [5, 15]: 16 ppm | MBC [5, 16]: 31.2 ppm | MBC Average value [6]: 35.2 ppm | MIC Average value [6]: 11 ppm

CC1=CC([O-])=NS(=O)(=O)O1.CCCCCCCCCC[N+](C)(C)CCCCCCCCCC [[DDA][Ace], didecyldimethylammonium acesulfamate]
Td - temperature of total decomposition [1]: 245 | Tonset - onset temperature of the decomposition [1]: 201 | Tonset(5%) - onset temperature for 5% of the decomposition [1]: 182 | MIC [2, 9]: 8 ppm | MBC [2, 10]: 31.2 ppm | MIC [3, 11]: 8 ppm | MBC [3, 12]: 16 ppm | MIC [4, 13]: 16 ppm | MBC [4, 14]: 62.5 ppm | MIC [5, 15]: 16 ppm | MBC [5, 16]: 16 ppm | MBC Average value [6]: 31.4 ppm | MIC Average value [6]: 12 ppm | Biological activity compared with the starting quaternary ammonium chloride (average MIC and MBC) [6]: only slight difference in the biological activity

CCCCCCCCCC[N+](C)(C)CCCCCCCCCC.O=C1[N-]S(=O)(=O)c2ccccc21 [[DDA][Sac], Didecyldimethylammonium Saccharinate]
Td - temperature of total decomposition [1]: 221 | Tonset - onset temperature of the decomposition [1]: 211 | Tonset(5%) - onset temperature for 5% of the decomposition [1]: 184 | MIC [2, 9]: 8 ppm | MBC [2, 10]: 16 ppm | MIC [3, 11]: 4 ppm | MBC [3, 12]: 62.5 ppm | MIC [4, 13]: 16 ppm | MBC [4, 14]: 16 ppm | MIC [5, 15]: 16 ppm | MBC [5, 16]: 16 ppm | MBC Average value [6]: 27.6 ppm | MIC Average value [6]: 11 ppm | Biological activity compared with the starting quaternary ammonium chloride (average MIC and MBC) [6]: high in comparison with starting material

CCCCCCCCCC[N+](C)(C)CCCCCCCCCC.Cc1ccc(S(=O)(=O)[O-])cc1 [didecyldimethylammonium p-toluenesulfonate]
Solubility / miscibility in water [8]: insoluble in water and hexane | Solubility in organic solvents / other media [8]: soluble in chloroform, acetone, DMSO

CCCCC(CC)COC(=O)CC(C(=O)OCC(CC)CCCC)S(=O)(=O)O.CCN(CC)CC(=O)Nc1c(C)cccc1C (stereo not drawn) [lidocaine docusate]
Anesthetic ability (tail flick, % MPE graphs) (Swiss-Webster male mice): higher and longer anesthetic ability than lidocaine hydrochloride

didecyldimethylammonium N-[4-[[(2-amino-1,4-dihydro-4-oxo-6-pteridinyl)methyl]amino]benzoyl]-L-glutamate
Tonset [1]: 201 °C | Tonset5% [1]: 153 °C
